Data: patent publication US6677310B1, “Ring-expanded nucleosides and nucleotides” (Nabi, priority 1999, dated 2004)
Where two headings read alike, the source gives them in different places.

Key:
[1] = tested on: K-562; test: SRB anti-cancer assay, Leukemia; assay type: cell-based, human; conditions: K-562 (Leukemia), 48 h; for CC50: read-out: LC50 (the source's name)
[2] = tested on: MOLT-4; test: SRB anti-cancer assay, Leukemia; assay type: cell-based, human; conditions: MOLT-4 (Leukemia), 48 h; for CC50: read-out: LC50 (the source's name)
[3] = tested on: panel of cancer cell lines; test: In vitro anti-cancer assay, panel of cancer cell lines (sulforhodamine B); assay type: cell-based, human; conditions: leukemia, non-small cell lung, colon, CNS, melanoma, ovarian, renal, prostate and breast cancer cell lines; read-out: GI50 values, range over the panel
[4] = tested on: LOX IMVI; test: SRB anti-cancer assay, Melanoma; assay type: cell-based, human; conditions: 48 h; for CC50: read-out: LC50 (the source's name)
[5] = tested on: HS 578T; test: SRB anti-cancer assay, Breast Cancer; assay type: cell-based, human; conditions: HS 578T (Breast Cancer), 48 h; for CC50: read-out: LC50 (the source's name)
[6] = tested on: IGROV1; test: SRB anti-cancer assay, Ovarian Cancer; assay type: cell-based, human; conditions: 48 h; for CC50: read-out: LC50 (the source's name)
[7] = tested on: HL-60(TB); conditions: HL-60(TB) (Leukemia), 48 h
Method: Briefly, cell suspensions that were diluted according to the particular cell type and the expected target cell density (5000-40,000 cells per well based on cell growth characteristics) were added by pipette (100 μl) into 96-well microtiter plates. Inoculates were allowed a preincubation period of 24h at 37° C. for stabilization. Dilutions at twice the intended test concentrations of the test compounds were added at time zero in 100 μl aliquots to the microtiter plate wells. The plates were incubated for 48 h in 5% CO2 atmosphere and 100% humidity. The cells were assayed by using the sulforhodamine B assay (Rubinstein, L. V. et al. J. Natl. Cancer Inst. 82:1113-118, 1990; Skehan, P. et al., J. Natl. Cancer Inst. 82:1107-1112, 1990). The plates were read by a plate reader. The following parameters were calculated from the optical densities:
GI50, concentration of drug that causes 50% growth inhibition; where (T−T0)/(C−T0)×100=50

[8] = tested on: herpes simplex virus (HSV)-1; test: Antiviral test against HSV-1; assay type: cell-based
Method: (§1) These compounds were also tested for their effects on HIV (Weislow, O. , et al., J. Natl. Cancer Inst., 81:577-586, 1989), herpes simplex virus (HSV)-1, HSV-2, cytomegalovirus (CMV), Varicella Zoster virus (VZV) and Epstein-Barr virus (EBV) replication (National Institute of Allergy and Infectious Diseases (NIAID), NIH, Bethesda, Md.).

[9] = tested on: Epstein-Barr virus (EBV); test: Antiviral test against EBV; assay type: cell-based
Method: as §1

[10] = tested on: 2.2.15 cells; test: Toxicity in confluent 2.2.15 cells (neutral red dye uptake); assay type: cell-based, human
Method: Anti-HBV activity and the toxicity against confluent 2.2.15 cells were determined by the previously described procedure (Korba, B. E., et al. Antivir. Res., 19:55-70, 1992; Korba, B. E., et al. Antivir. Res., 15:217-228, 1991). Briefly, confluent cultures of HBV transfected 2.2.15 cells were maintained on either 96-well or 24-well flat-bottomed tissue culture plates in RPMI 1640 medium with 2% fetal bovine serum (FBS). The cells were treated with test compounds daily for nine consecutive days. […] Cellular toxicity against separate cultures of confluent 2.2.15 cells was measured after treatment with the compounds for nine days under identical culture conditions as those used for the antiviral assay (Korba, B. E., et al. Antivir. Res., 19:55-70, 1992). Uptake of neutral red dye by treated cells was compared with dye uptake by untreated control cells (Korba, B. E., et al. Antivir. Res., 19:55-70, 1992).

[11] = tested on: Hepatitis B virus (HBV); test: Anti-HBV assay in 2.2.15 cells (virion DNA, HBV RI); assay type: cell-based; conditions: for HBV RI, percentage of control / Virion DNA, percentage of control: 10 μM, day 9, 2.2.15 cells
Method: The anti-HBV assays were performed according to the published protocol of Korba and Milman, (Korba, B. E.; Milman, G. Antiviral Res., 15, 217 1991), using cultures of 2.2.15 cells. In brief, the assay consisted of (a) seeding the chronically HBV-producing human liver cells (Acs et al. Proc. Nat. Acad. Sci., 84, 464 1987) into 24-well tissue culture plates, and growing to confluence, (b) adding test compounds daily for a continuous 9-day period, harvesting culture media after day 9 and (c) lysing treated cells 24 hours following day 9 of treatment for the analysis of extracellular virion DNA and intracellular HBV genomic forms.
Anti-HBV activity and the toxicity against confluent 2.2.15 cells were determined by the previously described procedure (Korba, B. E., et al. Antivir. Res., 19:55-70, 1992; Korba, B. E., et al. Antivir. Res., 15:217-228, 1991). Briefly, confluent cultures of HBV transfected 2.2.15 cells were maintained on either 96-well or 24-well flat-bottomed tissue culture plates in RPMI 1640 medium with 2% fetal bovine serum (FBS). The cells were treated with test compounds daily for nine consecutive days. The culture media were harvested on day 9 to quantify the amount of virion DNA. On day 10, the cells were lysed to quantify the amount of intracellular HBV replicative intermediates (RI). The quantification of virion DNA and the HBV RI were done by blot hybridization methods (Korba, B. E., et al. Antivir. Res., 19:55-70, 1992; Korba, B. E., et al. Antivir. Res., 15:217-228, 1991). Cellular toxicity against separate cultures of confluent 2.2.15 cells was measured after treatment with the compounds for nine days under identical culture conditions as those used for the antiviral assay (Korba, B. E., et al. Antivir. Res., 19:55-70, 1992). Uptake of neutral red dye by treated cells was compared with dye uptake by untreated control cells (Korba, B. E., et al. Antivir. Res., 19:55-70, 1992).

[12] = tested on: HSV-2; test: Antiviral test against HSV-2; assay type: cell-based
Method: as §1

[13] = tested on: HIV; test: Antiviral test against HIV; assay type: cell-based
Method: as §1

[14] = tested on: U251; test: SRB anti-cancer assay, CNS Cancer; assay type: cell-based, human; conditions: 48 h; for CC50: read-out: LC50 (the source's name)
[15] = tested on: Varicella Zoster virus (VZV); test: Antiviral test against VZV; assay type: cell-based
Method: as §1

[16] = tested on: HOP-92; assay type: cell-based, human; conditions: HOP-92 (Non-Small Cell Lung Cancer), 48 h; for CC50: read-out: LC50 (the source's name)
[17] = tested on: SF-539; test: SRB anti-cancer assay, CNS Cancer; assay type: cell-based, human; conditions: SF-539 (CNS Cancer), 48 h
[18] = tested on: cytomegalovirus (CMV); test: Antiviral test against CMV; assay type: cell-based
Method: as §1

[19] = target: T1, guanine deaminase (guanase) from rabbit liver (Oryctolagus cuniculus, UniProt G1T386); test: Guanine deaminase assay (Example 17); assay type: biochemical; conditions: Lineweaver-Burk plots
T1 construct: from tissue; host or cells: rabbit liver
T1 sequence (G1T386 1-454): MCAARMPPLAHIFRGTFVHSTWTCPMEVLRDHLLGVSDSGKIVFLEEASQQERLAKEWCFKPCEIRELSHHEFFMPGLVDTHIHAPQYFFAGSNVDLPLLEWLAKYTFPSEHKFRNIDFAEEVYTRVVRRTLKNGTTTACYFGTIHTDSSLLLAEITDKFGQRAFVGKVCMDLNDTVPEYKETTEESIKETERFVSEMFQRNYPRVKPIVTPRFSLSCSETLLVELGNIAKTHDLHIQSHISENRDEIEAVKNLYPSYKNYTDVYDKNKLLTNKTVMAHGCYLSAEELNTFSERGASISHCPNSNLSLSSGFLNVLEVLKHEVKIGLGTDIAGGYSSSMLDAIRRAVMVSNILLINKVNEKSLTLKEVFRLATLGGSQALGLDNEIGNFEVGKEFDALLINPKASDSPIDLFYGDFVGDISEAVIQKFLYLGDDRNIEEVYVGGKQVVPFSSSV
Method: Stock solutions of the substrate, enzyme, and inhibitors were prepared using a 50 mM Tris-HCl buffer (pH 7.4). The enzyme kinetics was followed by measuring the change in optical density (decrease in absorbance) per minute of the substrate guanine. By keeping the concentration of the inhibitor constant, and by varying the substrate concentration, a set of kinetic data was obtained. Additional sets of data were generated using different concentrations of the inhibitor. The substrate concentration in each assay ranged 6-20 μM; a total of six different concentrations were employed. The inhibitor concentration used in each assay was 30 or 40 μM. The amount of enzyme used in each assay was 0.0076 unit. The Ki for inhibition assays was computed from Lineweaver-Burk plots. The Lineweaver-Burk plot (1/V vs 1/[S]), as well as the linear regression analysis of kinetic data, were performed using the program Quattro Pro (version 6.01) for Windows.™.

[20] = confluent 2.2.15 cells, 9 days, neutral red dye uptake, read-out: CC50
[21] = extracellular HBV virion DNA, 10 fold inhibition, 9 days, read-out: EC90 Virion
[22] = extracellular HBV virion DNA, 9 days, read-out: EC50 Virion

For N=c1nc(N)c2ncn([C@@H]3O[C@H](COC(=O)c4ccccc4)[C@@H](OC(=O)c4ccccc4)[C@H]3OC(=O)c3ccccc3)c2c(N)n1 [4,8-Diamino-6H-6-imino-1(2′,3′,5′-tri-O-benzoyl-β-D-ribofuranosyl)imidazo[4,5-e][1,3]diazepine], the GI50 [1] was 2.74 µM, the TGI [1] was >100 µM and the CC50 [1] was > 100 µM. The GI50 [2] was 2.31 µM, the TGI [2] was 7.08 µM and the CC50 [2] was > 100 µM. The GI50 [3] was 0.1 to 10 µM, the GI50 [4] was 3.01 µM and the TGI [4] was >100 µM. For the same molecule, the CC50 [4] was > 100 µM, the GI50 [5] was 15.8 µM and the TGI [5] was 40.1 µM. The CC50 [5] was > 100 µM, the GI50 [6] was 5.13 µM and the TGI [6] was 20.3 µM. It also gave a CC50 [6] of 66.7 µM, a GI50 [7] of 4.01 µM and a TGI [7] of 18.3 µM. For the same molecule, the CC50 ([7]; read-out: LC50) was 83.7 µM.

With N=c1[nH]c(=O)c2ncn([C@@H]3O[C@H](CO)[C@@H](O)[C@H]3O)c2c(=O)[nH]1 [Compound 14-1, 6-Imino-6H-1-β-D-ribofuranosyl-4,5,7,8-tetrahydroimidazo[4,5-e][1,3]diazepine-4,8-dione] the “antiviral activity against HSV-1” value [8] was “no antiviral activity”, the GI50 [1] was > 100 µM and the TGI [1] was >100 µM. The CC50 [1] was > 100 µM, the GI50 [2] was > 100 µM and the TGI [2] was >100 µM. The CC50 [2] was > 100 µM, the “antiviral activity against EBV” value [9] was “no antiviral activity” and the CC50 ([10]; 2.2.15 cells, Example 13, read-out: CC50 (cellular toxicity)) was 2400 µM. For the same molecule, the CC50 [10, 20] was 2430 µM, the “HBV RI, percentage of control” value [11] was 15 ± 2 % and the “Virion DNA, percentage of control” value [11] was 4 ± 1 %. It also gave an EC90 ([11]; assay repeated three times, read-out: average EC90 for HBV virion inhibition) of 1.29 µM, an EC90 [11, 21] of 0.989 ± 0.11 µM and an EC50 [11, 22] of 0.131 µM. It also gave an EC90 ([11]; intracellular HBV DNA replicative intermediates, 10 fold inhibition, 9 days, read-out: EC90 HBV RI) of 7.3 ± 0.7 µM, an EC50 ([11]; intracellular HBV DNA replicative intermediates, 9 days, read-out: EC50 HBV RI) of 0.604 µM and an EC50 ([11]; transfected hepatoma cell line 2.2.15, Example 13, read-out: EC50 (anti-HBV activity)) of 0.17 µM. For the same molecule, the “antiviral activity against HSV-2” value [12] was “no antiviral activity”, the “antiviral activity against HIV” value [13] was “no antiviral activity” and the GI50 [14] was > 100 µM. For the same molecule, the TGI [14] was >100 µM, the CC50 [14] was > 100 µM and the “antiviral activity against VZV” value [15] was “no antiviral activity”. The GI50 [16] was > 100 µM, the TGI [16] was >100 µM and the CC50 [16] was > 100 µM. The GI50 [17] was > 100 µM, the TGI [17] was >100 µM and the CC50 ([17]; read-out: LC50 (the source's name)) was > 100 µM. The “antiviral activity against CMV” value [18] was “no antiviral activity”.

With N=c1nc(N)c2ncn([C@@H]3O[C@H](CO)[C@@H](O)[C@H]3O)c2c(N)n1 [Compound 14-2, 4,8-Diamino-6H-6-imino-1-β-D-ribofuranosylimidazo[4,5-e][1,3]diazepine] the “antiviral activity against HSV-1” value [8] was “no antiviral activity”, the “inhibition of guanine deaminase (guanase), mode” value [19] was “inactive” and the “antiviral activity against EBV” value [9] was “no antiviral activity”. The GI50 [3] was 1 to 10 µM, the CC50 [10, 20] was 501 µM and the “HBV RI, percentage of control” value [11] was 6 ± 1 %. The “Virion DNA, percentage of control” value [11] was 1 ± 1 %, the EC90 [11, 21] was 4.7 ± 0.5 µM and the EC50 [11, 22] was 0.397 ± 0.03 µM. The “antiviral activity against HSV-2” value [12] was “no antiviral activity”, the “antiviral activity against HIV” value [13] was “no antiviral activity” and the GI50 [14] was 20.1 µM. The TGI [14] was 45 µM, the CC50 [14] was > 100 µM and the GI50 [4] was 7.16 µM. The TGI [4] was 21.3 µM, the CC50 [4] was 51.2 µM and the “antiviral activity against VZV” value [15] was “no antiviral activity”. For the same molecule, the GI50 [16] was 19.2 µM, the TGI [16] was 40 µM and the CC50 [16] was 83.7 µM. The GI50 [5] was 7.58 µM, the TGI [5] was 31.6 µM and the CC50 [5] was > 100 µM. For the same molecule, the GI50 [6] was 14 µM, the TGI [6] was 30.5 µM and the CC50 [6] was 66.3 µM. The “antiviral activity against CMV” value [18] was “no antiviral activity”.
